Experimental data taken from patent US20170224688A1, “Methods of Using BTK Inhibitors to Treat Dermatoses” (Acerta Pharma B.V., priority 2016, published 2017).

Assays:
[1] = test system: BCR activation markers CD69 and CD86; assay: In vivo potency: BCR activation markers after oral gavage; conditions: mice gavaged, sacrificed 3 h post-dose, BCR stimulated with IgM, flow cytometry (FIG. 1)
Method: Mice were gavaged at increasing drug concentration and sacrificed at one time point (3 h post-dose). BCR is stimulated with IgM and the expression of activation markers CD69 and CD86 are monitored by flow cytometry to determine EC50's.
CD86 and CD69 are cell surface proteins that are BCR activation markers. […] BCR was stimulated with IgM and the expression of activation marker CD69 and CD86 are monitored by flow cytometry and to determine EC50 values.

CYP3A4 = CYP3A4 (Homo sapiens, UniProt P08684); assay: Loss of parent drug as catalyzed by CYPs; type: in vitro ADME; conditions: in vitro
Sequence of CYP3A4 (P08684 whole entry, species assumed): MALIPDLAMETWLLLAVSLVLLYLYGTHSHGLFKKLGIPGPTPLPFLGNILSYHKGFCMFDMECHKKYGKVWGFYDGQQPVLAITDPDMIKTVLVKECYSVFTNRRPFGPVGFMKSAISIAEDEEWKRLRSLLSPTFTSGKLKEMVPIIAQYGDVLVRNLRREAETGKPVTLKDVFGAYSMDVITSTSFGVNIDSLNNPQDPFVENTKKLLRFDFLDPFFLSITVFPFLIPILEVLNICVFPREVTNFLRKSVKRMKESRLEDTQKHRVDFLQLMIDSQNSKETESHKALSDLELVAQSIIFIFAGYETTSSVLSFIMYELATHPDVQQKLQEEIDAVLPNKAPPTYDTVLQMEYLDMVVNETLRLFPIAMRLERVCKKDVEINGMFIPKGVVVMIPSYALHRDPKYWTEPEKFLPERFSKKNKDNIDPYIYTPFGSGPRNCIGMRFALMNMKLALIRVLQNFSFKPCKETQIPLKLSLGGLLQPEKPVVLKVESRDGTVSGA

hepatocytes = assay: In vitro metabolism in hepatocytes with 14C-labeled drug; type: in vitro ADME, mouse, rat, dog, rabbit, monkey, and human
[2] = Preliminary evaluation of metabolism in plasma, bile, and urine; type: in vivo; conditions: rats, dogs, monkeys; preliminary evaluations
[3] = Glutathione binding and depletion in vitro; type: in vitro ADME
CYP enzymes = assay: Nonclinical CYP interaction studies; type: in vitro ADME
[4] = test system: signals through the B cell receptor; assay: In vitro potency in whole blood: CD69 on CD19+ B cells after anti-human IgD; type: cell-based; conditions: blood of four healthy donors, 2 h with compound, anti-human IgD 10 μg/mL 18 h, flow cytometry, read-out: EC50, inhibition of CD69 on gated CD19+ B cells in whole blood
Method: Blood from four healthy donors was incubated for 2 hours with the compounds shown over a concentration range, and then stimulated with anti-human IgD [10 μg/mL] for 18 hours. The mean fluorescent intensity (MFI) of CD69 (and CD86, data not shown) on gated CD19+ B cells was measured by flow cytometry.

[5] = Oral bioavailability (preclinical characteristics); conditions: in vivo
Text: (§1) Clinical studies have shown that targeting the BCR signaling pathway by inhibiting BTK produces significant clinical benefit in patients with various types of leukemias and lymphomas.

psoriasis [6] = assay: Clinical observation of psoriasis in CLL patients on study drug; type: in vivo, human
Text: as §1
The secondary objective of the clinical study is to evaluate tumor responses in patients treated with Formula (II).
The study scheme is a sequential cohort escalation. Each cohort consists of six subjects. The sample size of the study is 24 to 36 subjects, depending on dose escalation into subsequent cohorts. […] The dose level for Cohort 6 will be determined based on the safety and efficacy of Cohorts 1 to 5, and will not exceed 900 mg/day. Escalation will end with either the MTD cohort or three levels above full BTK occupancy, whichever is observed first. An additional arm of the study will explore 100 mg BID dosing.
The color of the capsules is Swedish orange. The route of administration is oral (per os, or PO). The dose regimen is once daily or twice daily, as defined by the cohort, on an empty stomach (defined as no food 2 hours before and 30 minutes after dosing).
(§2) Subject 1 in the clinical study of Example 12 is a CLL patient with a history of psoriatic skin disease. Subject 1 had psoriasis, without involvement of joints, and with diffuse plaques on their trunk and extremities. Their psoriasis was severe, with ˜30% body surface area (BSA) affected (>10% BSA is considered severe disease). They were treated over time with several systemic therapies including etanercept, adalimumab, and a 2010 clinical study of an experimental agent.
When treatment with Formula (2) was initiated, Subject 1's skin symptoms started to improve rapidly. […] By Cycle 10 (10 months on Formula (2)), their skin was clear. […] The only remainder was some scaling in the same areas that were once affected by psoriasis lesions.
Subject 2 was enrolled in a clinical study similar to that described above, and also experienced resolution of moderate-to-severe plaque psoriasis (a “florid” case) while on treatment with Formula (2). The subject's disease history included extensive body surface area involvement, mainly on the back and thighs, for most of their adult life.

[7] = Study of respiratory function (GLP safety pharmacology); conditions: rats, doses through 300 mg/kg (highest dose level)
EGFR = EGFR (Homo sapiens, UniProt P00533); assay: EGF-induced EGFR phosphorylation in A431 cells (phosphoflow cytometry); conditions: at 10 μM, A431 human epidermoid cancer cell line
Sequence of EGFR (P00533 25-1210): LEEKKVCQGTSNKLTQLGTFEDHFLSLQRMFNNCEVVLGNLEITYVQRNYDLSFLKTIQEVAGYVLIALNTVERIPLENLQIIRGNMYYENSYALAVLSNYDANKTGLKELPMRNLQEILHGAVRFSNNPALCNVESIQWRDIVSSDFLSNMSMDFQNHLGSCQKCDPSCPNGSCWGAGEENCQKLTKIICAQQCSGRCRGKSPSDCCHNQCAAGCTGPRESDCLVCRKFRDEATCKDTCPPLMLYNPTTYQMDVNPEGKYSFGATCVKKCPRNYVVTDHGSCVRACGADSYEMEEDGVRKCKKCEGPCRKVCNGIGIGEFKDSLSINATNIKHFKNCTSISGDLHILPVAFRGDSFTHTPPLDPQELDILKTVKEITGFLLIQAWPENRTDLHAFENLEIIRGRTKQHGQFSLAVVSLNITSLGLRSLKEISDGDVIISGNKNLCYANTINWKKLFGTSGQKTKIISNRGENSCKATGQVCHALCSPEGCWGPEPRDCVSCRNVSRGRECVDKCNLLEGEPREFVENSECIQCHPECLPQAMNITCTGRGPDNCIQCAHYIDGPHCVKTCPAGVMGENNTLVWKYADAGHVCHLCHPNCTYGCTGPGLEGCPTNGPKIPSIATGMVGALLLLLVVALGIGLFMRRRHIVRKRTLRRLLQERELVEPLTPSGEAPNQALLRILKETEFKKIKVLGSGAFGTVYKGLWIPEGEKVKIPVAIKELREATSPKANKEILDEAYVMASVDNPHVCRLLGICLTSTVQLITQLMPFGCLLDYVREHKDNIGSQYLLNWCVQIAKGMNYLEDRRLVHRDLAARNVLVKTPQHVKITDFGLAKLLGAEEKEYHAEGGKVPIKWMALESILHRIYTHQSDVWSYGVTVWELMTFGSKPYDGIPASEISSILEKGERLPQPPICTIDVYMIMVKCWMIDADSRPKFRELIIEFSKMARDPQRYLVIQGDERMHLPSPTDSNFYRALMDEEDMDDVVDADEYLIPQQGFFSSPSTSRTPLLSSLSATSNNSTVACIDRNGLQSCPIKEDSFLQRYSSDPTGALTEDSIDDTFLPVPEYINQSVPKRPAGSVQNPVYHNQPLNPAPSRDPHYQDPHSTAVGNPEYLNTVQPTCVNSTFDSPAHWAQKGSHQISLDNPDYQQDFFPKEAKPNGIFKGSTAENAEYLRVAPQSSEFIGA

psoriasis [8] = conditions: patients treated for malignancies; cited from earlier work
psoriasis [9] = assay: Treatment history of Subject 1's psoriasis; type: in vivo, human; conditions: Subject 1, before enrolling in the clinical study
Method: as §2

hematologic malignancies = conditions: cited from earlier work

## CC#CC(=O)N1CCC[C@H]1c1nc(-c2ccc(C(=O)Nc3ccccn3)cc2)c2c(N)nccn12 [Formula (II), (S)-4-(8-amino-3-(1-(but-2-ynoyl)pyrrolidin-2-yl)imidazo[1,5-a]pyrazin-1-yl)-N-(pyridin-2-yl)benzamide]
[1]
  in vivo potency at inhibiting expression of activation markers CD69 and CD86: more potent at inhibiting expression of activation makers than ibrutinib
CYP3A4
  metabolizing CYP (loss of parent drug): metabolized by CYP3A4
hepatocytes; hepatocytes of six species
  unique human metabolite: No unique human metabolite was identified
hepatocytes; mouse, rat, dog, rabbit, monkey, human hepatocytes, 14C-labeled drug
  metabolites in hepatocytes: two mono-oxidized metabolites and a glutathione conjugate
[2]
  metabolic processes in plasma, bile, and urine: oxidation, glutathione binding, and hydrolysis
[3]
  glutathione binding and depletion: binds to glutathione but does not deplete glutathione
CYP enzymes
  drug-drug interaction potential through CYP enzymes: very unlikely to cause clinical drug-drug interactions
[4]
  EC50: 8.2 nM
[5]
  oral bioavailability: significant oral bioavailability
Psoriasis [6]; Subject 1, CLL patient with severe psoriasis (~30% BSA), oral
  psoriasis skin symptoms, first month of therapy: some improvement
Psoriasis [6]; Subject 1, oral
  psoriasis, first 6 months of treatment: mostly resolved
  skin status by Cycle 10 (10 months): clear
Psoriasis [6]; Subject 2, similar clinical study
  moderate-to-severe plaque psoriasis after start of treatment: cleared quickly
[7]
  respiratory function: no treatment-related adverse effects
EGFR
  inhibition of in vitro EGFR phosphorylation: no inhibition

## Cc1nc(Nc2ncc(C(=O)Nc3c(C)cccc3Cl)s2)cc(N2CCN(CCO)CC2)n1 [Dasatinib]
Psoriasis [8]
  effect on psoriasis / skin: has not been reported to improve psoriasis

## C=CC(=O)Nc1cccc(Nc2nc(Nc3ccc(OCCOC)cc3)ncc2F)c1 [CC-292, N-(3-((5-fluoro-2-((4-(2-methoxyethoxy)phenyl)amino)pyrimidin-4-yl)amino)phenyl)acrylamide]
[4]
  EC50: 121 nM

## etanercept
Psoriasis [9]
  response of psoriasis to earlier therapy: initially responded

## Cc1ccc(NC(=O)c2ccc(CN3CCN(C)CC3)cc2)cc1Nc1nccc(-c2cccnc2)n1 [imatinib]
Psoriasis [8]
  effect on psoriasis / skin: may cause worsening of psoriasis

## Cc1ccc(C(=O)Nc2ccc(CN3CCN(C)CC3)c(C(F)(F)F)c2)cc1C#Cc1cnc2cccnn12 [Ponatinib]
Psoriasis [8]
  effect on psoriasis / skin: causes an extreme degree of skin drying and induces an almost psoriasis-like disease

## C=CC(=O)N1CCC[C@@H](n2nc(-c3ccc(Oc4ccccc4)cc3)c3c(N)ncnc32)C1 [Ibrutinib, 1-[(3R)-3-[4-amino-3-(4-phenoxyphenyl)-1H-pyrazolo[3,4-d]pyrimidin-1-yl]piperidin-1-yl]prop-2-en-1-one]
[4]
  EC50: 6.1 nM
Hematologic malignancies; subjects with heavily pretreated non-Hodgkin lymphoma
  antitumor activity: substantial antitumor activity
Hematologic malignancies; within the tested dose range (through 840 mg)
  maximum tolerated dose (MTD): No maximum tolerated dose (MTD) was apparent
